Measurements as given in article doi:10.1101/2022.02.04.479134, “A Suite of TMPRSS2 Assays for Screening Drug Repurposing Candidates as Potential Treatments of COVID-19” (bioRxiv, 2022).
Where a name gives a salt, the structure may show the parent alone. Read-outs that look alike come from different tables or passages of the source.

Legend:
[1] = Fluorescence counterassay (AMC quenching); details: 1 μM AMC; for Biochemical (fluorogenic counterassay) Max Response: 0% = 1 μM AMC, −100% = 0.1 μM AMC, <0% = quenching
Procedure: Assay buffer (50 mM Tris pH 8, 150 mM NaCl, 0.01% Tween20) was added to the full plate to give a total reaction volume of 5 μL. Detection was done using the PHERAstar with 340 nm excitation and 440 nm emission. Fluorescence was normalized relative to a negative control containing 7-amino-4-methylcoumarin at 0.1 μM (−100% activity, low fluorescence) and a positive control containing 7-amino-4-methylcoumarin at 1 μM (0% activity, high fluorescence).

[2] = system: Calu-3 cells
[3] = biological target: recombinant TMPRSS2; details: fluorogenic peptide substrate; cited from earlier work
[4] = system: Calu-3 cells; details: cited from earlier work
[5] = biological target: T1, Recombinant Human TMPRSS2 (Homo sapiens, UniProt O15393); assay: biochemical; type: biochemical; details: for AC50: 10 μM peptide, 0.4 μM TMPRSS2, 1 h RT, N/D = Not Detected, read-out: Biochemical (mass spectrometry) AC50; for IC50: biochemical assay not given, matches mass spectrometry values, read-out: IC50 inhibition of TMPRSS2
T1 sequence (O15393 106-492): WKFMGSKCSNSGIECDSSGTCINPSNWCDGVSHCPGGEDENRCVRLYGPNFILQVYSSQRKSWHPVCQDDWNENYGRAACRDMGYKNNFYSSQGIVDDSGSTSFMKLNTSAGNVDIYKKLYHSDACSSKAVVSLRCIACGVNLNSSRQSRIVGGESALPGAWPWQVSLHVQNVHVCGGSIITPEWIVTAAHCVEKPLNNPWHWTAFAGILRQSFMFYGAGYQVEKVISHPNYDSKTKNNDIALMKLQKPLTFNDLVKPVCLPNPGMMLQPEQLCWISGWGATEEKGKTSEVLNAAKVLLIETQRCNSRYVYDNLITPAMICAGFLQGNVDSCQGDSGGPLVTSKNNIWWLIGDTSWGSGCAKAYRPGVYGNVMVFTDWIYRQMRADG

[6] = biological target: T1, Recombinant Human TMPRSS2; assay: biochemical; type: biochemical; details: 10 μM Boc-QAR-AMC, 0.175 μM TMPRSS2, 1 h RT, 11-point dose-response in triplicate; read-out: Biochemical (fluorogenic) AC50
Procedure: Buffer conditions were tested and optimized to include: 50 mM Tris pH 8, 150 mM NaCl and 0.01% Tween20.
Following 1 h of incubation at RT, detection was done using the PHERAstar with 340 nm excitation and 440 nm emission (Table 1).
To determine compound activity in the assay, the concentration–response data for each sample was plotted and modeled by a four-parameter logistic fit yielding IC50 and maximal response values. […] Data normalization, visualization, and curve fitting were performed using Prism (GraphPad, San Diego, CA).

[7] = system: H1N1 and H3N2 influenza virus strains; details: Calu-3 cells; cited from earlier work
[8] = in vitro; details: human

tannic acid
quenching of the AMC fluorescent signal [1]: ~ 30%

N=C(N)c1cccc(CC(NS(=O)(=O)c2cccc(-c3ccc(Cl)cc3Cl)c2)C(=O)N2CCC(NC(=O)NC3CCCCC3)CC2)c1 (stereo not drawn) [Cmpd 114 (Meyer)]
Biochemical (fluorogenic counterassay) Max Response [1]: -6.2%
Calu-3 (cytotoxicity) Max Response ([2]; ATP content, no PP): 0%
Ki [3]: 0.005 µM
cytotoxicity within Calu-3 cells [4]: not cytotoxic
AC50 [5]: 0.26 µM
IC50 [5]: ~0.3 µM
AC50 [6]: 0.57 µM

N=C(N)c1cccc(CC(NS(=O)(=O)c2cccc(-c3ccc(Cl)cc3Cl)c2)C(=O)N2CCC(CCN)CC2)c1 (stereo not drawn) [Cmpd 92 (Meyer)]
Biochemical (fluorogenic counterassay) Max Response [1]: -5.6%
Calu-3 (cytotoxicity) Max Response ([2]; ATP content, no PP): 0%
Ki [3]: 0.0009 µM
cytotoxicity within Calu-3 cells [4]: not cytotoxic
replication of H1N1 and H3N2 influenza virus strains [7]: significantly reduced
AC50 [5]: 0.28 µM
IC50 [5]: ~0.3 µM
AC50 [6]: 0.41 µM

N=C(N)c1ccc2nc(-c3cc(CC(=O)N[C@@H](CC(=O)O)C(=O)O)cc(-c4cc(S(N)(=O)=O)ccc4O)c3O)[nH]c2c1 [PCI-27483]
Biochemical (fluorogenic counterassay) Max Response [1]: 61.3%
Calu-3 (cytotoxicity) Max Response ([2]; ATP content, no PP): 0%
AC50 [5]: 1.4 µM
AC50 [6]: 1.8 µM

CC(=O)N[C@@H](CC(C)C)C(=O)N[C@@H](CC(C)C)C(=O)N[C@H](C=O)CCCNC(=N)N [Leupeptin]
Biochemical (fluorogenic counterassay) Max Response [1]: 0.5%
Calu-3 (cytotoxicity) Max Response ([2]; ATP content, no PP): 0%
AC50 [5]: 0.72 µM
AC50 [6]: 1.58 µM

CCOC(=O)c1cc(=O)c2c(OCC(COc3cccc4oc(C(=O)OCC)cc(=O)c34)OC(=O)[C@@H](N)CCCCN)cccc2o1 [Cromoglicate lisetil]
Biochemical (fluorogenic counterassay) Max Response [1]: -1.4%
Calu-3 (cytotoxicity) Max Response ([2]; ATP content, no PP): 0%
AC50 [5]: 25.1 µM
AC50 [6]: 16.5 µM

Hydroxystilbamidine bis(methanesulfonate)
Biochemical (fluorogenic counterassay) Max Response [1]: -6.4%
Calu-3 (cytotoxicity) Max Response [2]: 0%
AC50 [5]: 2.31 µM
AC50 [6]: 3.03 µM

CCOC(=O)c1ccc(OC(=O)CCCCCNC(=N)N)cc1 [Gabexate mesilate]
Biochemical (fluorogenic counterassay) Max Response [1]: 17.4%
Calu-3 (cytotoxicity) Max Response ([2]; ATP content, no PP): 0%

Nc1nc2ncc(CNc3ccc(C(=O)N[C@@H](CCC(=O)O)C(=O)O)cc3)nc2c(=O)[nH]1 [Folic Acid]
Biochemical (fluorogenic counterassay) Max Response [1]: 14.5%
Calu-3 (cytotoxicity) Max Response ([2]; ATP content, no PP): 0%
AC50 [6]: 13.3 µM

N=C(N)NC(=O)c1nc(Cl)c(N)nc1N [Amiloride HCl]
Biochemical (fluorogenic counterassay) Max Response [1]: 26.6%
Calu-3 (cytotoxicity) Max Response ([2]; ATP content, no PP): 0%
AC50 [5]: 9 µM
AC50 [6]: 8.29 µM

COC(=O)[C@H](Cc1cccc(C(=N)N)c1)[C@@H](C)NC(=O)c1ccc(-c2cc[n+]([O-])cc2)cc1 [Otamixaban]
Biochemical (fluorogenic counterassay) Max Response [1]: -1%
Calu-3 (cytotoxicity) Max Response ([2]; ATP content, no PP): 0%

CC(C)C[C@H](NC(=O)[C@H](Cc1ccccc1)NC(=O)c1cnccn1)B(O)O [Bortezomib]
Biochemical (fluorogenic counterassay) Max Response [1]: 4.6%
Calu-3 (cytotoxicity) Max Response ([2]; ATP content, no PP): -97%
cytotoxicity towards Calu-3 cells ([2]; cytotoxicity counter-assay): high cytotoxicity
AC50 [8]: 0.29 µM
AC50 [5]: 9.77 µM
AC50 [6]: 11.4 µM

N=C(N)c1ccc2cc(OC(=O)c3ccc(N=C(N)N)cc3)ccc2c1 [Nafamostat mesilate]
Biochemical (fluorogenic counterassay) Max Response [1]: -1.9%
Calu-3 (cytotoxicity) Max Response ([2]; ATP content, no PP): 0%

COC(=O)N[C@H](C(=O)N1CCC[C@H]1c1nc(-c2ccc(-c3ccc(-c4c[nH]c([C@@H]5CCCN5C(=O)[C@@H](NC(=O)OC)C(C)C)n4)cc3)cc2)c[nH]1)C(C)C [Daclatasvir dihydrochloride]
Biochemical (fluorogenic counterassay) Max Response [1]: 447%
Calu-3 (cytotoxicity) Max Response ([2]; ATP content, no PP): 0%
AC50 [6]: 13.3 µM
